Assay results: ChEMBL document CHEMBL4477270, “Design, synthesis, and protein methyltransferase activity of a unique set of constrained amine containing compounds” (Bioorg Med Chem Lett, 2016)
Active and inactive are the calls of the source. No cut-off for these calls is given here.

Legend:
[1] = biological target: T1, N-lysine methyltransferase KMT5A (Homo sapiens) (UniProt Q9NQR1); experiment: Inhibition of SETD8 (unknown origin) using biotin-labeled histone H4 (1 to 24 residues) as substrate assessed as residual activity at 50 uM in presence of [3H-Me]SAM by scintillation proximity assay relative to control
T1 sequence (whole entry): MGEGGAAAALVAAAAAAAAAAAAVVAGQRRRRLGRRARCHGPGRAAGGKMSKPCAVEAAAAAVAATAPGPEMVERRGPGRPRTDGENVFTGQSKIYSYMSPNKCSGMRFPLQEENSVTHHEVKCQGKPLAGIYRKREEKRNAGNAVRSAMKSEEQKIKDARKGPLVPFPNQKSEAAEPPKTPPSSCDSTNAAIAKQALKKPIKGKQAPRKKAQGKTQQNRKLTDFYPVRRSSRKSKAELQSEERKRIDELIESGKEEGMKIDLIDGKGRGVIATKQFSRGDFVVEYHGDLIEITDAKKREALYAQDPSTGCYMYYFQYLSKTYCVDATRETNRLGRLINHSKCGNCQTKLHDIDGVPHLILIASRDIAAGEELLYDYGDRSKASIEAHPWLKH

[2] = biological target: Histone-lysine N-methyltransferase SUV39H2 (Homo sapiens) (UniProt Q9H5I1); experiment: Inhibition of SUV39H2 (unknown origin) using biotin-labeled histone substrate assessed as residual activity at 50 uM in presence of [3H-Me]SAM by scintillation proximity assay relative to control
[3] = biological target: T2, Histone-lysine N-methyltransferase NSD3 (Homo sapiens) (UniProt Q9BZ95); experiment: Inhibition of NSD3 (unknown origin) using biotin-labeled histone substrate assessed as residual activity at 50 uM in presence of [3H-Me]SAM by scintillation proximity assay relative to control
T2 sequence (whole entry): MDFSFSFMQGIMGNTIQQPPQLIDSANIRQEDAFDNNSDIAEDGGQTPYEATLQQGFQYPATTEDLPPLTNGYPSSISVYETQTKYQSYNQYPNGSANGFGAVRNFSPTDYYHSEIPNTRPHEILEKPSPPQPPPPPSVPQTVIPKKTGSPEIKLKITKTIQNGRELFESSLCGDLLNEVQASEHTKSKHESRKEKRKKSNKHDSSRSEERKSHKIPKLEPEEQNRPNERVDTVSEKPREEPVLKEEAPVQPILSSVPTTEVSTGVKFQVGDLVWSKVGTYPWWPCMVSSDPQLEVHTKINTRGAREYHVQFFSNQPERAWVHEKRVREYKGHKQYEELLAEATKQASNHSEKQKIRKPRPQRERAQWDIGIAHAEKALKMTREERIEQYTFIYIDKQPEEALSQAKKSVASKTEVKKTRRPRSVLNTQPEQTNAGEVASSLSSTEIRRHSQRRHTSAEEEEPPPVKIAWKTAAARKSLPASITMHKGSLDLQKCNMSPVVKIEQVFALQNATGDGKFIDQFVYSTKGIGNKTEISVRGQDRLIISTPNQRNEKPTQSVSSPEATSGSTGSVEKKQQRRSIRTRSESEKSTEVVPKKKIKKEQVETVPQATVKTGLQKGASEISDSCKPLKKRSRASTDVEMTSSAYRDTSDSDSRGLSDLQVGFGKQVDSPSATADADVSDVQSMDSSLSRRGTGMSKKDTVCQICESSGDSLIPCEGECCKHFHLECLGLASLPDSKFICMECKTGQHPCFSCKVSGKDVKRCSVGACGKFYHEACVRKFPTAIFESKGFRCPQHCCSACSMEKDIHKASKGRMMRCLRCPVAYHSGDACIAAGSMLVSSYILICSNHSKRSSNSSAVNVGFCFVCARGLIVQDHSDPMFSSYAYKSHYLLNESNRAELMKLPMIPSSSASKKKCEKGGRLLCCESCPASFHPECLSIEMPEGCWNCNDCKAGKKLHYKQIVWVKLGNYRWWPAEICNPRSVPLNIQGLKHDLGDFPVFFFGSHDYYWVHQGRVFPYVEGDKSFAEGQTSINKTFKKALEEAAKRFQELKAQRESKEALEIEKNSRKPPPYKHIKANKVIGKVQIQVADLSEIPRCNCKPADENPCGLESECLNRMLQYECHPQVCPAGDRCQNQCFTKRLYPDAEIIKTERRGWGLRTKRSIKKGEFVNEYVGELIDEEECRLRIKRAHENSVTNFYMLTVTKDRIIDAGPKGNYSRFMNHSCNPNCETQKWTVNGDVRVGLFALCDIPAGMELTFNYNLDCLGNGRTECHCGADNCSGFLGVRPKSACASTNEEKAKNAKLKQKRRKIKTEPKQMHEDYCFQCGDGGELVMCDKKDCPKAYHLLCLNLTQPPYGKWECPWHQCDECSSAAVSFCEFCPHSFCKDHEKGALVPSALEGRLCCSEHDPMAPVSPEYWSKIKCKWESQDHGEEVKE

[4] = biological target: Histone-lysine N-methyltransferase, H3 lysine-79 specific (Homo sapiens) (UniProt Q8TEK3); experiment: Inhibition of DOT1L (unknown origin) using biotin-labeled histone substrate assessed as residual activity at 50 uM in presence of [3H-Me]SAM by scintillation proximity assay relative to control
[5] = biological target: T3, N-lysine methyltransferase KMT5A (Homo sapiens, UniProt Q9NQR1); experiment: Inhibition of SETD8 (unknown origin) using biotin-labeled histone H4 (1 to 24 residues) as substrate in presence of [3H-Me]SAM by scintillation proximity assay
T3 sequence (Q9NQR1 whole entry): T1 sequence (whole entry)

[6] = biological target: T1, N-lysine methyltransferase KMT5A (Homo sapiens); experiment: Binding affinity to SETD8 (unknown origin) in presence of S-adenosyl-L-homocysteine by isothermal titration calorimetry
[7] = biological target: T1, N-lysine methyltransferase KMT5A (Homo sapiens); experiment: Binding affinity to SETD8 (unknown origin) in absence of S-adenosyl-L-homocysteine by isothermal titration calorimetry

Sequence of Histone-lysine N-methyltransferase, H3 lysine-79 specific (Homo sapiens) (Q8TEK3 whole entry, looked up, the tested form may be a part): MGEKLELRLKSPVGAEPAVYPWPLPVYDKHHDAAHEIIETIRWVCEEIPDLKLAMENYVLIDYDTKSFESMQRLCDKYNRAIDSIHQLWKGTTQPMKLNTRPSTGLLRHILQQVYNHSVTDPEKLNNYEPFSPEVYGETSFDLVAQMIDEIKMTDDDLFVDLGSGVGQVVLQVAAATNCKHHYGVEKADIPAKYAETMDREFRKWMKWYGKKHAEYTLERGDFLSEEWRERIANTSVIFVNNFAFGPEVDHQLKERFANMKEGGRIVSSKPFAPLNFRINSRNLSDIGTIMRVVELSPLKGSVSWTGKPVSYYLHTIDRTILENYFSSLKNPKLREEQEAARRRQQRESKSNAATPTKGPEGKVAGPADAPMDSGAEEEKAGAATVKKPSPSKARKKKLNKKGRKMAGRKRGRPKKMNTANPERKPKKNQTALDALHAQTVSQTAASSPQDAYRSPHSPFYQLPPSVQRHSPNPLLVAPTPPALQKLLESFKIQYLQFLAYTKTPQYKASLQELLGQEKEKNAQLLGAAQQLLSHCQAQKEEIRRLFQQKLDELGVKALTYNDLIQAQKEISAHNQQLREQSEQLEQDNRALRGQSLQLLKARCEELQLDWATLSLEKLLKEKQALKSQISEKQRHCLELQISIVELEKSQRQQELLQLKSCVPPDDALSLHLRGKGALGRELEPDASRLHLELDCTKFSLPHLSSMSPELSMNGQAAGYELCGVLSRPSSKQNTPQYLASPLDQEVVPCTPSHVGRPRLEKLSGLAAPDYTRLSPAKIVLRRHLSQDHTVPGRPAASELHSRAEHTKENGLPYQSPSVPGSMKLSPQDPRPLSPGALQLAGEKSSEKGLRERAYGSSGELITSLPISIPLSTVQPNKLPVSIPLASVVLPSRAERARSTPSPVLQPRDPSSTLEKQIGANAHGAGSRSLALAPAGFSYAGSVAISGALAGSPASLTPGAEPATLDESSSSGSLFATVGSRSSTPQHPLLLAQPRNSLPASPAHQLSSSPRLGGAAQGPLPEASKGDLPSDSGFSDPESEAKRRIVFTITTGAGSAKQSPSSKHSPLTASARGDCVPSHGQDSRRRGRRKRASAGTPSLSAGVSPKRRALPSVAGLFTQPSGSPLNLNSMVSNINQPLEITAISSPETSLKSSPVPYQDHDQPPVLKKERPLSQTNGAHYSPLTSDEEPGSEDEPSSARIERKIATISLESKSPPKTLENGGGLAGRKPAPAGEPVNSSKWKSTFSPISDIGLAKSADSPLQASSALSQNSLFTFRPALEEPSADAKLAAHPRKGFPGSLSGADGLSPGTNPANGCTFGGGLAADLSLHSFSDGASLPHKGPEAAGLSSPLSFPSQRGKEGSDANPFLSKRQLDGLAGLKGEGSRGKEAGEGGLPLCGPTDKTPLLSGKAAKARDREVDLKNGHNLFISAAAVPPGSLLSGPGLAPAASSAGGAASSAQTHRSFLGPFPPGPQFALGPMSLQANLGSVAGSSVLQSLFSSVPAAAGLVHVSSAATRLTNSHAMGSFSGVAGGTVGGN
Sequence of Histone-lysine N-methyltransferase SUV39H2 (Homo sapiens) (Q9H5I1 whole entry): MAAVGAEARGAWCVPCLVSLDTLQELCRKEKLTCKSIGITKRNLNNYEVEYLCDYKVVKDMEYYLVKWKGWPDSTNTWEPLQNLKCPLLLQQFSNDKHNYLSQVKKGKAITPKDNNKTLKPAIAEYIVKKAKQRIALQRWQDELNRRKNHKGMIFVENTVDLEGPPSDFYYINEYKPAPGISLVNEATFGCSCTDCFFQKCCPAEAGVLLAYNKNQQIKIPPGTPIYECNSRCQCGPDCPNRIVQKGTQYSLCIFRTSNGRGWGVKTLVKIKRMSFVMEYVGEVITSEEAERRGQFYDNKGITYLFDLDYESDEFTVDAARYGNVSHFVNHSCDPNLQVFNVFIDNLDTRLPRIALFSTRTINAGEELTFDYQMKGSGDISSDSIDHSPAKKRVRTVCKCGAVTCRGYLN

Row | SMILES | Activity [1] [%] | Activity [2] [%] | Activity [3] [%] | Activity [4] [%] | IC50 [5] [µM] | Activity [6] | Activity [7]
1 | O=C(c1cccc(Br)c1)N1C[C@H]2CCCN[C@H]2C1 | 90 | 107 | 100 | 89 |  |  | 
2 | O=C(c1cccc(Br)c1)N1CCCC2(CCNCC2)C1 | 105 | 95 | 93 | 96 |  |  | 
3 | CN1CCCC12CCCN(C(=O)c1cccc(Br)c1)C2 (stereo unspecified) | 96 | 99 | 95 | 94 |  |  | 
4 | CN1CCC[C@@H]2CN(C(=O)c3cccc(Br)c3)C[C@@H]21 | 45 | 101 | 98 | 97 | 39 | inactive | inactive
5 | O=C(c1cccc(Br)c1)N1C[C@@H]2CCN[C@@H]2C1 | 105 | 88 | 94 | 94 |  |  | 
6 | O=C(c1cccc(Br)c1)N1CCC2CNCC2C1 (stereo unspecified) | 103 | 95 | 102 | 94 |  |  | 
7 | CN1CCCCC12CCCN(C(=O)c1cccc(Br)c1)C2 (stereo unspecified) | 73 | 91 | 100 | 100 |  |  | 
8 | O=C(c1cccc(Br)c1)N1CCCC2(CCCCN2)C1 (stereo unspecified) | 106 | 91 | 111 | 100 |  |  | 
9 | CN1CCC2(CCCN(C(=O)c3cccc(Br)c3)C2)C1 (stereo unspecified) | 106 | 84 | 104 | 97 |  |  | 
10 | CN1CCCC2(CCCN(C(=O)c3cccc(Br)c3)C2)C1 (stereo unspecified) | 107 | 84 | 99 | 96 |  |  | 
11 | O=C(c1cccc(Br)c1)N1CC[C@@H]2[C@@H](CC3CCCCN32)C1 (stereo partly specified) | 104 | 113 | 98 | 105 |  |  | 
12 | CN1CCC2(CCCN2C(=O)c2cccc(Br)c2)CC1 | 91 | 97 | 96 | 97 |  |  | 
13 | CN1CC[C@H]2CN(C(=O)c3cccc(Br)c3)C[C@H]21 | 105 | 101 | 92 | 91 |  |  | 
14 | O=C(c1cccc(Br)c1)N1C[C@@H]2CC3CCCCN3[C@@H]2C1 (stereo partly specified) | 106 | 108 | 94 | 96 |  |  | 
15 | CN1CCC2(CC1)CCN(C(=O)c1cccc(Br)c1)CC2 | 91 | 116 | 110 | 102 |  |  | 
16 | O=C(c1cccc(Br)c1)N1CC[C@H]2NCC[C@H]2C1 | 113 | 83 | 107 | 99 |  |  | 
17 | O=C(c1cccc(Br)c1)N1CCC[C@@H]2CNC[C@@H]21 | 103 | 104 | 106 | 96 |  |  | 
18 | CN1CCCC2(CCCN2C(=O)c2cccc(Br)c2)C1 (stereo unspecified) | 106 | 92 | 102 | 107 |  |  | 
19 | CN1CCCCC12CCN(C(=O)c1cccc(Br)c1)CC2 | 43 | 111 | 97 | 101 | > 200 |  | 
20 | C[N+]1(C)CCCCC12CCN(C(=O)c1cccc(Br)c1)CC2 | 49 | 114 | 99 | 96 | > 200 |  | 
21 | O=C(c1cccc(Br)c1)N1C[C@@H]2CC3CCCN3[C@@H]2C1 (stereo partly specified) | 104 | 102 | 106 | 100 |  |  | 
22 | O=C(c1cccc(Br)c1)N1CCC2(CCNCC2)CC1 | 101 | 95 | 98 | 103 |  |  | 
23 | CN1C[C@H]2CCCN(C(=O)c3cccc(Br)c3)[C@H]2C1 | 85 | 77 | 92 | 94 |  |  | 
24 | CN1CCCC12CCN(C(=O)c1cccc(Br)c1)CC2 | 103 | 94 | 101 | 100 |  |  | 
